Source: patent publication EP1043331A1, “BONE-RESORPTIVE CYTOKINE INHIBITOR CONTAINING DIENOGEST AS THE ACTIVE INGREDIENT” (MOCHIDA PHARMACEUTICAL CO., LTD., priority 1997, dated 1999)
Marks after values point to notes of the source that are not given here.

Columns and labels:
Type in all cases: cell-based, mouse
TNF-α = TNF-α release from murine osteoblast (culture supernatant cytokine assay); conditions: 24 hours culture
Description: According to the method by Johansen, et al. (Journal Bone and Mineral Research, Vol.7, pp.501-509, 1992), osteoblast was collected from the femoral bones of a female SLC : ICR mouse of age 15 weeks. Under anesthesia with pentobarbital sodium (25 mg/kg, intraperitoneal administration), postcava was cut to bleed and kill the animal to death. Then, bilateral femoral bones were resected. This bone was cut with a pair of bone scissors, to remove the bone marrow with a micro-loop. The inner face of the bone was rubbed off with a sharp blade. The resulting matter was agitated in a 10 % collagenase solution (Nitta gelatin) at 37 °C for 20 minutes, and to the resulting mixture was added a culture medium (an MEM culture medium supplemented with 10 % charcoal-treated bovine fetal serum; manufactured by Nissui Pharmaceutical, Co. Ltd.) prior to centrifugation (300×g, 5 minutes and 20 °C). The resulting cells were dispersed in a fresh culture medium and then inoculated on a plastic culture dish (diameter of 35 mm, Primaria (Falcon)). At 37 °C in 5 % CO2/95% air, the cells were cultured for 24 hours, and the attached cells were recovered in a 0.25 % trypsin solution to prepare a cell suspension of 1×10^4 cells/ml. Osteoblast was identified by using alkali phosphatase staining as an osteoblast marker. For recovering osteoblast from an animal after ovariectomy, ovariectomy was carried out at age 11 weeks, and the animal was fed for the following 4 weeks, prior to the same treatment.
1×10^4 cells/ml osteoblast suspension (100 µl), a culture medium (890 µl) and a drug solution (10 µl) were added into each well of a plastic 24-well culture plate (Falcon), for culturing at 37 °C in 5 % CO2/95 % air for 24 hours, and then, the resulting culture was centrifuged (300 ×g, 5 minutes, 20°C) to recover the supernatant, which was defined as a cytokine assay sample. The final concentrations of the drug were 10^-11, 10^-10 and 10^-9 M. For experiments, furthermore, three dishes per each group were used.

PKA = PKA activity in murine osteoblast (time-resolved fluorometry); conditions: Fig.2
Description: According to the method by Johansen, et al. (Journal Bone and Mineral Research, Vol.7, pp.501-509, 1992), osteoblast was collected from the femoral bones of a female SLC : ICR mouse of age 15 weeks. Under anesthesia with pentobarbital sodium (25 mg/kg, intraperitoneal administration), postcava was cut to bleed and kill the animal to death. Then, bilateral femoral bones were resected. This bone was cut with a pair of bone scissors, to remove the bone marrow with a micro-loop. The inner face of the bone was rubbed off with a sharp blade. The resulting matter was agitated in a 10 % collagenase solution (Nitta gelatin) at 37 °C for 20 minutes, and to the resulting mixture was added a culture medium (an MEM culture medium supplemented with 10 % charcoal-treated bovine fetal serum; manufactured by Nissui Pharmaceutical, Co. Ltd.) prior to centrifugation (300×g, 5 minutes and 20 °C). The resulting cells were dispersed in a fresh culture medium and then inoculated on a plastic culture dish (diameter of 35 mm, Primaria (Falcon)). […] Osteoblast was identified by using alkali phosphatase staining as an osteoblast marker. For recovering osteoblast from an animal after ovariectomy, ovariectomy was carried out at age 11 weeks, and the animal was fed for the following 4 weeks, prior to the same treatment. 1×10^4 cells/ml osteoblast suspension (100 µl), a culture medium (890 µl) and a drug solution (10 µl) were added into each well of a plastic 24-well culture plate (Falcon), for culturing at 37 °C in 5 % CO2/95 % air for 24 hours, and then, the resulting culture was centrifuged (300 ×g, 5 minutes, 20°C) to recover the supernatant, which was defined as a cytokine assay sample. […] For experiments, furthermore, three dishes per each group were used. The osteoblast recovered by the method of the Experimental Example 1 was used. […] An enhancer reagent (100 µl) was added, for agitation at room temperature for 5 minutes, to determine the fluorescence intensity with a time-resolved fluorometer. Based on a preliminarily prepared standard curve, PKA activity was calculated.

IL-1β = IL-1β release from murine osteoblast (culture supernatant cytokine assay); conditions: 24 hours culture
Description: Under anesthesia with pentobarbital sodium (25 mg/kg, intraperitoneal administration), postcava was cut to bleed and kill the animal to death. Then, bilateral femoral bones were resected. This bone was cut with a pair of bone scissors, to remove the bone marrow with a micro-loop. The inner face of the bone was rubbed off with a sharp blade. The resulting matter was agitated in a 10 % collagenase solution (Nitta gelatin) at 37 °C for 20 minutes, and to the resulting mixture was added a culture medium (an MEM culture medium supplemented with 10 % charcoal-treated bovine fetal serum; manufactured by Nissui Pharmaceutical, Co. Ltd.) prior to centrifugation (300×g, 5 minutes and 20 °C). The resulting cells were dispersed in a fresh culture medium and then inoculated on a plastic culture dish (diameter of 35 mm, Primaria (Falcon)). […] Osteoblast was identified by using alkali phosphatase staining as an osteoblast marker. For recovering osteoblast from an animal after ovariectomy, ovariectomy was carried out at age 11 weeks, and the animal was fed for the following 4 weeks, prior to the same treatment.
Dienogest as a test substance was dissolved and diluted in dimethylsulfoxide (DMSO, manufactured by Wako Pure Chemical Industries, Ltd.) for use. As a control substance, furthermore, MPA and danazol were used after they were dissolved and diluted in DMSO. DMSO was used as a solvent control.
The final concentrations of the drug were 10^-11, 10^-10 and 10^-9 M. For experiments, furthermore, three dishes per each group were used.
Using SMRART ™ (Pharmacia Biotech, Uppsala, Sweden), the supernatant was concentrated by about 10 fold, after the termination of culturing. The level of cytokine in the sample was assayed by using assay kits of murine IL-1β, IL-6 and TNF-α (Cytoscreen™, BioSource International, Camarillo, Calif. CA, USA) and europium-labeled streptoavidin (Pharmacia Biotech).

murine osteoclast = experiment: Frequency of occurrence of apoptosis in murine osteoclast; conditions: 7 days, one hundred cells with two or more nuclei observed, control 4.0
Description: By a method according to the report by Takahashi et al. (Endocrinology, Vol.122, pp.1373-1382, 1988), osteoclast was prepared. More specifically, a female SLC:ICR mouse of age 7 weeks was bled and killed to death, under anesthesia with pentobarbital sodium (25 mg/kg, intraperitoneal administration), and from the mouse; her femoral bone was resected. Both the ends were cut, to rinse off the […] into α-MEM (Gibco) (1 ml). […] 0.5 ml of the cell suspension was inoculated in a 24-well microtiter plate. To the wells was added 100 ng/ml parathyroid hormone (Sigma Chemical Co.) for culturing in 5 % CO2/95 % air at 37 °C for 2 days. […] Herein, three plates were used per one concentration of each drug. […] After rinsing in PBS, the apoptosis cells were detected by using an ApopTagPlus Insitu Apoptosis Detection kit peroxidase (Oncor, Gaithersburg, MD, USA) and a TSA-direct kit (GreenFISH, NEN Life Science Products, Boston, MA). Simultaneously, the smear sample was stained with a 20 µg/ml propidium iodide (Sigma Chemical Co.) solution containing 50 U/ml RNase, at room temperature for 15 minutes, to stain the nucleus. One hundred cells with two or more nuclei were observed under a cofocal laser scanning type fluorescence microscope (MRC-1000, BioRad), to determine the number of apoptosis-positive cells developed: The results are shown in Table 5.

[1] = osteoblast of non-treated mouse, 10^-9 M, control 23.5
[2] = osteoblast of non-treated mouse, 10^-10 M, control 23.5
[3] = osteoblast of non-treated mouse, 10^-11 M, control 23.5
[4] = osteoblast of ovariectomized mouse, 10^-9 M, control 45.0
[5] = osteoblast of ovariectomized mouse, 10^-10 M, control 45.0
[6] = osteoblast of ovariectomized mouse, 10^-11 M, control 45.0
[7] = doses of 10^-11, 10^-10 and 10^-9 M
[8] = osteoblast of non-treated mouse, 10^-9 M, control 13.9
[9] = osteoblast of non-treated mouse, 10^-10 M, control 13.9
[10] = osteoblast of non-treated mouse, 10^-11 M, control 13.9
[11] = osteoblast of ovariectomized mouse, 10^-9 M, control 26.3
[12] = osteoblast of ovariectomized mouse, 10^-10 M, control 26.3
[13] = osteoblast of ovariectomized mouse, 10^-11 M, control 26.3

Row | Structure (SMILES) | TNF-α (TNF-α; [1]) | TNF-α (TNF-α; [2]) | TNF-α (TNF-α; [3]) | TNF-α (TNF-α; [4]) | TNF-α (TNF-α; [5]) | TNF-α (TNF-α; [6]) | PKA activity in the murine osteoblast (PKA; [7]) | IL-1β (IL-1β; [8]) | IL-1β (IL-1β; [9]) | IL-1β (IL-1β; [10]) | IL-1β (IL-1β; [11]) | IL-1β (IL-1β; [12]) | IL-1β (IL-1β; [13]) | frequency of apoptosis occurrence in murine osteoclast (number of apoptosis-positive cells) (murine osteoclast; 10^-9 M) | frequency of apoptosis occurrence in murine osteoclast (number of apoptosis-positive cells) (murine osteoclast; 10^-10 M) | frequency of apoptosis occurrence in murine osteoclast (number of apoptosis-positive cells) (murine osteoclast; 10^-11 M) | PKA activity in the murine osteoblast (PKA; at a concentration of 10^-9 M or more)
1 | C#C[C@]1(O)CC[C@H]2[C@@H]3CCC4=Cc5oncc5C[C@]4(C)[C@H]3CC[C@@]21C [Danazol, danazol] | 26.1** pg/ml | 24.3 pg/mL | 24.0 pg/mL | 47.5** pg/ml | 45.3 pg/mL | 45.3 pg/mL | did not affect | 15.4* pg/ml | 13.8 pg/mL | 13.6 pg/mL | 28.1** pg/ml | 26.0 pg/mL | 25.2 pg/mL | 3.3 | 3.7 | 4.0 | 
2 | C[C@]12CCC3=C4CCC(=O)C=C4CC[C@H]3[C@@H]1CC[C@@]2(O)CC#N [Dienogest, 17 α-cyanomethyl-17β-hydroxy-estra-4,9(10)-dien-3-one] | 14.8** pg/ml | 24.4 pg/mL | 24.7 pg/mL | 22.3** pg/ml | 29.8** pg/ml | 44.4 pg/mL |  | 12.0** pg/ml | 13.7 pg/mL | 14.4 pg/mL | 23.1** pg/ml | 23.8* pg/ml | 26.1 pg/mL | 16.3** | 5.0 | 3.7 | significantly enhanced
3 | CC(=O)O[C@]1(C(C)=O)CC[C@H]2[C@@H]3C[C@H](C)C4=CC(=O)CC[C@]4(C)[C@H]3CC[C@@]21C [MPA, medroxyprogesterone acetate] | 31.4** pg/ml | 25.3 pg/mL | 25.5 pg/mL | 47.6* pg/ml | 46.1 pg/mL | 44.6 pg/mL | did not affect | 16.9* pg/ml | 14.4 pg/mL | 13.3 pg/mL | 30.2** pg/ml | 25.9 pg/mL | 26.3 pg/mL | 5.0 | 3.7 | 4.0 | 
